Reference: US20020055528A1, “Artemisinin analogs having antimalarial, antiproliferative, and antitumor activities and chemoselective methods of making the same” (priority 1999, published 2002)

Tests used:
SN12C = assay: NCI 60 cell line screen (SRB), Renal Cancer; format: cell-based
[1] = test system: P. vivax and P. falciparum; conditions: 2099 cases of malaria, different dosage forms; cited from earlier work
60 cell line panel = conditions: 60 lines, nine subpanels; later anticancer studies; cited from earlier work
SNB-19 = assay: NCI 60 cell line screen (SRB), CNS Cancer; format: cell-based; conditions: PG=0
[2] = cited from earlier work
U251 = assay: NCI 60 cell line screen (SRB), CNS Cancer; format: cell-based
A498 = assay: NCI 60 cell line screen (SRB), Renal Cancer; format: cell-based
[3] = test system: chloroquine-sensitive P. falciparum (NF54); assay: Antimalarial screening, [3H]hypoxanthine incorporation; format: cell-based, Plasmodium falciparum; conditions: Plasmodium falciparum, NF54, chloroquine-sensitive P. falciparum (NF54); read-out: IC50
Experimental: Activity was determined by measuring the incorporation of [^3H]hypoxanthine, by the methods of Desjardins and Milhouse, with the following modifications, see […].; Haynes, […]. Antimicrob. Agents Chemother., 16: 710 (1979); Milhous, W. K.; Weatherly, […].; Antimicrob. Agents Chemother., 27: 525 (1985). […] Calbiochem #391338), 27 mM NaHCO3 (Gibco BRL # 11810-025), and 10% heat-inactivated human type O+serum (Interstate Blood Bank, Inc.), under 3% O2, 4% CO2, and 93% N2-Parasitemia was maintained at 0.05-3% and doubling time at approximately 15 hours by twice weekly change of medium and replenishment with fresh erythrocytes. […] Sigma-Aldrich #27,043-1). DMSO solutions were diluted 500-fold in medium, serially diluted in 0.2% DMSO in medium (to maintain constant solvent concentration), then 100 μL aliquots were pipetted into microtiter plate wells (Costar3595). […] Cells were harvested (Brandel MB-48R) onto GF-C glass filters (Brandel). The filters were washed five times with 3 mL water per sample spot, dried under a heat lamp, and counted (Beckman Model LS-6500) in scintillation cocktail (ICN Cytoscint). Decays per minute (dpm) values were downloaded and analyzed (Power Macintosh 7200/90; Microsoft Excel 5.0), to yield the mean and standard deviation at each drug concentration.

P. falciparum = conditions: two Hanian strains; compared with chloroquine; cited from earlier work
SK-MEL2 = assay: NCI 60 cell line screen (SRB), Melanoma; format: cell-based; conditions: PG=0
K-562 = assay: NCI 60 cell line screen (SRB), Leukemia; format: cell-based
SK-MEL-28 = assay: NCI 60 cell line screen (SRB), Melanoma; format: cell-based
PC-3 = assay: NCI 60 cell line screen (SRB), Prostate Cancer; format: cell-based; conditions: PG=0
P388 leukemia = conditions: NCI Report on NSC 369397; cited from earlier work
HT29 = assay: NCI 60 cell line screen (SRB), Colon Cancer; format: cell-based
P. berghei = conditions: P. berghei-infected mice; parasitemia 90 percent suppressed; cited from earlier work
UACC-257 = assay: NCI 60 cell line screen (SRB), Melanoma; format: cell-based; conditions: PG=0

With `C[C@@H]1CC[C@H]2[C@@H](C)C(=O)O[C@@H]3O[C@]4(C)CC[C@@H]1[C@]32OO4` [Artemisinin, artemisinin] the Log10TGI (SN12C; SN12C, PG=0) was over −4.00 log10M, the Log10GI50 (SN12C; SNI2C, PG=+50) was −4.21 log10M and the Log10GI50 (SN12C; Table IV (LC50, PG=−50), SN12C) was over −4.00 log10M. For the same molecule, the clinical outcome [1] was “clinical cure of all patients”, the “anticancer activity in words” value (60 cell line panel) was “very little anticancer activity” and the Log10TGI (SNB-19) was over −4.00 log10M. The “solubility in water in words” value [2] was “insolubility in water”, the Log10TGI (U251; PG=0) was over −4.00 log10M and the Log10GI50 (U251; PG=+50) was over −4.00 log10M. For the same molecule, the Log10GI50 (U251; Table IV (LC50, PG=−50)) was over −4.00 log10M, the Log10TGI (A498; PG=0) was over −4.00 log10M and the Log10GI50 (A498; PG=+50) was over −4.00 log10M. For the same molecule, the Log10GI50 (A498; Table IV (LC50, PG=−50)) was over −4.00 log10M, the IC50 [3] was 10 nM and the potency in words (P. falciparum) was “comparable to that of chloroquine”. It also gave a Log10TGI (SK-MEL2) of over −4.00 log10M, a Log10TGI (K-562; PG=0) of −4.00 log10M and a Log10GI50 (K-562; PG=+50) of −4.33 log10M. The Log10GI50 (K-562; Table IV (LC50, PG=−50)) was over −4.00 log10M, the Log10TGI (SK-MEL-28; PG=0) was over −4.00 log10M and the Log10GI50 (SK-MEL-28; PG=+50) was over −4.00 log10M. The Log10GI50 (SK-MEL-28; Table IV (LC50, PG=−50)) was over −4.00 log10M, the Log10TGI (PC-3) was −4.00 log10M and the activity in words (P388 leukemia) was “inactive”. For the same molecule, the Log10TGI (HT29; PG=0) was over −4.00 log10M, the Log10GI50 (HT29; PG=+50) was over −4.00 log10M and the Log10GI50 (HT29; Table IV (LC50, PG=−50)) was over −4.00 log10M. The SD90 (P. berghei) was 6.20 mg/kg and the Log10TGI (UACC-257) was over −4.00 log10M.
